The text below walks through data of US10368545B2, “Substituted 2-thioimidazolylcarboxamides as pesticides” (BAYER CROPSCIENCE AKTIENGESELLSCHAFT, priority 2015, dated 2019).

A short description of data set [1]: log P by HPLC on reversed-phase C18 columns (OECD Guideline 117). The data set is classed as physicochemical. Particulars: for chromatographic logP: reversed-phase C18 HPLC column; for logP[a]: method [a]; for logP[b]: method [b]; for log P[a]: acidic range; for log P[n]: neutral range. Here is the method: The log P values were determined in accordance with OECD Guideline 117 (EC Directive 92/69/EEC) by HPLC (high-performance liquid chromatography) using reversed-phase (RP) columns (C18), by the following methods:
[a] The LC-MS determination in the acidic range was carried out at pH 2.7 with 0.1% aqueous formic acid and acetonitrile (contains 0.1% formic acid) as mobile phases; linear gradient from 10% acetonitrile to 95% acetonitrile.
[b] LC-MS determination in the neutral range was carried out at pH 7.8 with 0.001 molar aqueous ammonium hydrogencarbonate solution and acetonitrile as mobile phases; linear gradient from 10% acetonitrile to 95% acetonitrile.

Data set [2] has as its system green peach aphid (Myzus persicae). Put plainly: Myzus persicae spray test (Chinese cabbage leaf discs). The data set is classed as in vivo. Particulars: application rate 500 g/ha; after 5 or 6 days; Chinese cabbage leaf discs. The method, then: Myzus persicae—Spray Test
Solvent: 78 parts by weight of acetone • • 1.5 parts by weight of dimethylformamide
Emulsifier: alkylaryl polyglycol ether
To produce a suitable active compound preparation, 1 part by weight of active compound is dissolved using the stated parts by weight of solvent and made up with water containing an emulsifier concentration of 1000 ppm until the desired concentration is attained. To produce further test concentrations, the preparation is diluted with emulsifier-containing water.
Discs of Chinese cabbage leaves (Brassica pekinensis) infested by all stages of the green peach aphid (Myzus persicae) are sprayed with an active compound preparation of the desired concentration.
After 5 or 6 days, the efficacy in % is determined. 100% means that all the aphids were killed; 0% means that no aphids were killed.

The mark [3] stands for this setting: pH 2.7, acidic range, pH 2.7, 0.1% aqueous formic acid / acetonitrile, read-out: log P[a].
The mark [4] stands for this setting: pH 2.7, method [a], read-out: logP[a].
Setting [5] is: pH 7.8, method [b], read-out: logP[b].
The mark [6] stands for this setting: pH 2.7, 0.1% aqueous formic acid / acetonitrile.
The mark [7] stands for this setting: pH 7.8, 0.001 molar aqueous ammonium hydrogencarbonate / acetonitrile.

Values joined by “and” are separate entries in the source; they are usually repeats but may differ in a detail not shown here. Equal entries are not always repeated. Where two headings read alike, the source gives them in different places.

Take `CN(C(=O)c1cncn1Cc1ccccc1)c1cccnc1` [1-benzyl-N-methyl-N-(pyridin-3-yl)-1H-imidazole-5-carboxamide]: the chromatographic logP in data set [1] (setting [3]) is 0.85; in data set [1] (pH 7.8, neutral range, pH 7.8, 0.001 molar aqueous ammonium hydrogencarbonate / acetonitrile, read-out: log P[n]), 1.4.

Turning to `CN(C(=O)c1c(Br)nc(Sc2ncccn2)n1C)c1cccnc1` [I-A-13], in data set [1], the “logP[a]” value was 1.25 and the “logP[b]” value came out at 1.31.

`CN(C(=O)c1cnc(Sc2ccccc2[N+](=O)[O-])n1C)c1cccnc1` [I-A-16]: in data set [2], the “efficacy (aphids killed)” value amounted to 90%. In data set [1], the “logP[a]” value was found to be 1.68 and the “logP[b]” value is recorded as 1.78.

Turning to `CN(C(=O)c1cnc(SC2CCCCC2)n1C)c1cccnc1` [I-A-17], in data set [1], the “logP[a]” value is 1.89 and the “logP[b]” value is 2.26.

As to `CC(=O)CSc1ncc(C(=O)N(C)c2cccnc2)n1C` [I-A-23], the “efficacy (aphids killed)” value in data set [2] was found to be 90%. For the same compound, the “logP[a]” value in data set [1] is 0.67 and 0.71.

`CCOC(=O)CSc1ncc(C(=O)N(C)c2cccnc2)n1C` [I-A-24]: the “efficacy (aphids killed)” value in data set [2] amounted to 90%. Besides, in data set [1], the “logP[a]” value was found to be 1.20 and the “logP[b]” value is 1.34.

On to `COC(=O)CSc1ncc(C(=O)N(C)c2cccnc2)n1C` [I-A-25], for which, in data set [2], the “efficacy (aphids killed)” value came to 90%. Further, in data set [1], the “logP[a]” value amounted to 0.88 and the “logP[b]” value is on record as 1.09.

`CN(C(=O)c1cnc(SCC(=O)C(C)(C)C)n1C)c1cccnc1` [I-A-28]: the “efficacy (aphids killed)” value in data set [2] is listed as 90%. For the same compound, in data set [1], the “logP[a]” value was 1.53 and the “logP[b]” value worked out at 1.78.

With `CN(C(=O)c1cnc(SCC(=O)O)n1C)c1cccnc1` [I-A-29], in data set [1], the “logP[a]” value is 0.28 and the “logP[b]” value was found to be 1.05.

Regarding `CN(C(=O)c1cnc(SCC(=O)C2CC2)n1C)c1cccnc1` [I-A-31], the “efficacy (aphids killed)” value in data set [2] is given as 90%. Moreover, in data set [1], the “logP[a]” value came out at 0.97 and the “logP[b]” value came out at 1.28.

With `CN(C(=O)c1cnc(SCC(N)=O)n1C)c1cccnc1` [I-A-32], in data set [1], the “logP[a]” value is given as 0.11 and the “logP[b]” value is reported as 0.50.

With `CNC(=O)CSc1ncc(C(=O)N(C)c2cccnc2)n1C` [I-A-33], the chromatographic logP in data set [1] (setting [4]) turned out to be 0.33; in data set [1] (setting [5]) it was 0.62.

For the compound `CN(C)C(=O)CSc1ncc(C(=O)N(C)c2cccnc2)n1C` [I-A-34], in data set [1], the “logP[a]” value was found to be 0.59 and the “logP[b]” value is 0.81.

Regarding `CCSc1ncc(C(=O)Nc2cccnc2)n1C` [I-A-41], the “efficacy (aphids killed)” value in data set [2] is given as 90%. In addition, in data set [1], the “logP[a]” value was found to be 0.71 and the “logP[b]” value is 1.54.

Turning to `CNC(=O)CS(=O)(=O)c1ncc(C(=O)N(C)c2cccnc2)n1C` [I-A-42], in data set [1], the “logP[a]” value is recorded as 0.35 and the “logP[b]” value is 0.55.

As to `CN(C(=O)c1cnc(Sc2ccc(C(C)(C)C)cc2)n1C)c1cccnc1` [I-A-63], in data set [1], the “logP[a]” value is on record as 2.75 and the “logP[b]” value is 2.92.

With `CN(C)C(=O)c1ccccc1Sc1ncc(C(=O)N(C)c2cccnc2)n1C` [I-A-67], the “efficacy (aphids killed)” value in data set [2] came to 90%. For the same compound, in data set [1], the “logP[a]” value is 1.17 and the “logP[b]” value came out at 1.25.

Consider `COc1ccccc1Sc1ncc(C(=O)N(C)c2cccnc2)n1C` [I-A-72], for which, in data set [1], the “logP[a]” value was 1.59 and the “logP[b]” value amounted to 1.74.

As for `CN(C(=O)c1cnc(S(=O)(=O)c2ccc(C(C)(C)C)cc2)n1C)c1cccnc1` [I-A-76], in data set [1], the “logP[a]” value is 2.53 and the “logP[b]” value came to 2.55.

Take `COc1ccc(S(=O)(=O)c2ncc(C(=O)N(C)c3cccnc3)n2C)cc1` [I-A-81]: in data set [1], the “logP[a]” value is listed as 1.53 and the “logP[b]” value is 1.58.

For the compound `CN(C(=O)c1cnc(S(=O)(=O)c2ccccn2)n1C)c1cccnc1` [I-A-85], in data set [1], the “logP[a]” value was found to be 1.01 and the “logP[b]” value worked out at 1.10.

For `CN(C(=O)c1cnc(S(=O)(=O)c2ccccc2)n1C)c1cccnc1` [I-A-88], in data set [1], the “logP[a]” value came to 1.37 and the “logP[b]” value is on record as 1.47.

In the case of `CN(C(=O)c1cnc(S(=O)(=O)c2ccc([N+](=O)[O-])cc2)n1C)c1cccnc1` [I-A-90], in data set [1], the “logP[a]” value was found to be 1.58 and the “logP[b]” value is recorded as 1.68.

As for `CN(C)C(=O)c1cccc([S+]([O-])c2ncc(C(=O)N(C)c3cccnc3)n2C)c1` (stereo not drawn) [I-A-91], in data set [1], the “logP[a]” value amounted to 0.76 and the “logP[b]” value is listed as 0.96.

For the compound `CN(C)C(=O)c1ccccc1S(=O)(=O)c1ncc(C(=O)N(C)c2cccnc2)n1C` [I-A-92], in data set [1], the “logP[a]” value is 1.12 and the “logP[b]” value was 1.29.

On to `CN(C(=O)c1cnc(Sc2ncccn2)n1Cc1ccccc1)c1cccnc1` [I-A-111, 1-benzyl-N-methyl-N-(pyridin-3-yl)-2-(pyrimidin-2-ylsulphanyl)-1H-imidazole-5-carboxamide], for which the chromatographic logP in data set [1] (setting [4]) was 1.73; in data set [1] (setting [5]) it was 1.78.

As to `CN(C(=O)c1cnc(SCc2cncn2C)n1C)c1cccnc1` [I-A-114], in data set [1], the “logP[a]” value is given as 0.20 and the “logP[b]” value worked out at 0.85.

Regarding `CN(C(=O)c1cnc(SCc2ccn(C)n2)n1C)c1cccnc1` [I-A-115], in data set [1], the “logP[a]” value amounted to 0.76 and the “logP[b]” value is on record as 1.12.

As for `CN(C(=O)c1cnc(SCc2nccn2C)n1C)c1cccnc1` [I-A-118], the “logP[b]” value in data set [1] is recorded as 0.89.

For the compound `CN(C(=O)c1cnc(SCc2ccc(Cl)c(Cl)c2)n1C)c1cccnc1` [I-A-121], in data set [1], the “logP[a]” value amounted to 2.51 and the “logP[b]” value turned out to be 2.62.

In the case of `Cc1cccc(C)c1CSc1ncc(C(=O)N(C)c2cccnc2)n1C` [I-A-129], in data set [1], the “logP[a]” value was found to be 2.32 and the “logP[b]” value is listed as 2.44.

Turning to `COC(=O)C(C)(C)NC(=O)CSc1ncc(C(=O)N(C)c2cccnc2)n1C` [I-A-133], in data set [1], the “logP[a]” value was found to be 1.06 and the “logP[b]” value is 1.22.

Regarding `COC(=O)c1cnc(Sc2ncc(C(=O)N(C)c3cccnc3)n2C)n1C` [I-A-143], in data set [1], the “logP[a]” value was 1.12 and the “logP[b]” value is recorded as 1.27.

Turning to `Cc1cc(C)nc(Sc2ncc(C(=O)O)n2C)n1` [IV-1], the “log P[a]” value in data set [1] (setting [6]) is 0.81.

As to `Cn1c(C(=O)O)cnc1SCC1CC1` [IV-2], the “log P[a]” value in data set [1] (setting [6]) is on record as 0.62. Also, the “log P[n]” value in data set [1] (setting [7]) is listed as −0.18.

With `Cn1c(C(=O)O)cnc1Br` [IX-1, 1-methyl-2-bromoimidazole-5-carboxylic acid], the chromatographic logP in data set [1] (setting [3]) amounted to 0.31.

Regarding `COC(=O)c1cnc(Sc2nc(C)cc(C)n2)n1C` [VIII-1], in data set [1] (setting [6]), the “log P[a]” value was 1.78. In addition, in data set [1] (setting [7]), the “log P[n]” value came to 1.80.

For `COC(=O)c1cnc(SCC2CC2)n1C` [VIII-2], in data set [1] (setting [6]), the “log P[a]” value amounted to 2.06. For the same compound, in data set [1] (setting [7]), the “log P[n]” value came to 2.26.

`CN(C(=O)c1cnc(Br)n1C)c1cccnc1` [XI-1]: in data set [1] (setting [6]), the “log P[a]” value amounted to 0.65. In addition, the “log P[n]” value in data set [1] (setting [7]) came out at 0.93.

`Cn1cc(C(=O)O)nc1Br` [XIX-1, 2-bromo-1-methyl-1H-imidazole-4-carboxylic acid]: in data set [1] (setting [3]), the chromatographic logP amounted to 0.

On to `CN(C(=O)c1cncn1C)c1cccnc1` [XV-1], for which the “log P[n]” value in data set [1] (setting [7]) was determined as 0.42.

Regarding `Cn1cnc(C(=O)OC(C)(C)C)c1` [XVII-1, tert-butyl 1-methyl-1H-imidazole-4-carboxylate], the chromatographic logP in data set [1] (setting [3]) amounted to 0.74.

Turning to `Cn1cc(C(=O)OC(C)(C)C)nc1Br` [XVIII-1, tert-butyl 2-bromo-1-methyl-1H-imidazole-4-carboxylate], in data set [1] (setting [3]), the chromatographic logP turned out to be 1.27.

Take `CN(C(=O)c1cn(C)c(Br)n1)c1cccnc1` [XXI-1]: the “log P[n]” value in data set [1] (setting [7]) was found to be 0.76.
